Experimental data published in patent US6172038A, “Antipathogenic peptides and compositions comprising them” (priority 1996, dated 2001).
Where no end group is shown, it is not given here. [ ]: non-standard residue; d: D form.

Key:
[1] = tested on: human red blood cells (hRBC); test: Hemolysis of human red blood cells; type: cell-based; settings: for % hemolysis at 50 μM peptide / % hemolysis at 100 μM: 30 min at 37° C.; for hemolytic activity (dose response): up to maximum concentration tested (50 μM)
Experimental: (ix) Hemolysis of human red blood cells. The peptides were tested for their hemolytic activities against human red blood cells (hRBC). Fresh hRBC with EDTA were rinsed 3 times with PBS (35 mM phosphate buffer/0.15 M NaCl, pH 7.3) by centrifugation for 10 min at 800 g and resuspended in PBS. Peptides dissolved in PBS were then added to 50 μL of a solution of the stock hRBC in PBS to reach a final volume of 100 μL (final erythrocyte concentration, 5% v/v). The resulting suspension was incubated under agitation for 30 min at 37° C. The samples were then centrifuged at 800 g for 10 min. Release of hemoglobin was monitored by measuring the absorbance of the supernatant at 540 nm. Controls for zero hemolysis (blank) and 100% hemolysis consisted of hRBC suspended in PBS and Triton 1%, respectively.

[2] = Membrane permeation, diffusion potential assay; settings: zwitterionic vesicles
Experimental: (xi) Membrane permeation induced by the peptides. Membrane permeation was assessed utilizing the diffusion potential assay (Loew et al., 1983; Sims et al., 1974) as previously described (Shai et al., 1991). In a typical experiment, in a glass tube, 4 μl of a liposomes suspension (final phospholipids concentration of 33 μM), in a K^+ containing buffer (50 mM K2 SO4, 25 mM HEPES-SO4^-2, pH 6.8), was diluted in 1 ml of an isotonic K^+ free buffer (50 mM Na2 SO4, 25 mM HEPES-SO4^-2, pH 6.8), and the fluorescent, potential-sensitive dye diS-C2 -5 was then added. Valinomycin (1 μl of 10^-7 M) was added to the suspension in order to slowly create a negative diffusion potential inside the vesicles, which led to a quenching of the dye's fluorescence. Once the fluorescence had stabilized, which took 3-10 minutes, peptides were added. The subsequent dissipation of the diffusion potential, as reflected by an increase in fluorescence, was monitored on a Perkin Elmer LS-50B spectrofluorometer, with the excitation set at 620 nm, the emission at 670 nm, and the gain adjusted to 100%. The percentage of fluorescence recovery, Ft, was defined as:
where I0 =the initial fluorescence, If =the total fluorescence observed before the addition of valinomycin, and It =the fluorescence observed after adding the peptide at time t.

[3] = phosphatidylglycerol/phosphatidylcholine (Beschiaschvili and Seelig, 1990); cited from earlier work
Bacillus megaterium Bm11 = test: Antibacterial activity (MIC), growth inhibition in 96-well plates; type: cell-based; settings: 100% inhibition of growth after 18-20 h at 37° C.
Escherichia coli D21 = test: as above; type: cell-based; settings: 100% inhibition of growth after 18-20 h at 37° C.
[4] = tested on: Acinetobacter calcoaceticus Ac11; test: as above; type: cell-based; settings: 100% inhibition of growth after 18-20 h at 37° C.

CC[C@H](C)[C@H](NC(=O)CN)C(=O)NCC(=O)N[C@@H](C)C(=O)N[C@H](C(=O)N[C@@H](CC(C)C)C(=O)N[C@@H](CCCCN)C(=O)N[C@H](C(=O)N[C@@H](CC(C)C)C(=O)N[C@H](C(=O)N[C@H](C(=O)NCC(=O)N[C@@H](CC(C)C)C(=O)N1CCC[C@H]1C(=O)N[C@@H](C)C(=O)N[C@@H](CC(C)C)C(=O)N[C@H](C(=O)N[C@@H](CO)C(=O)N[C@@H](Cc1c[nH]c2ccccc12)C(=O)N[C@H](C(=O)N[C@@H](CCCCN)C(=O)N[C@@H](CCCNC(=N)N)C(=O)N[C@@H](CCCCN)C(=O)N[C@@H](CCCNC(=N)N)C(=O)N[C@@H](CCC(N)=O)C(=O)N[C@@H](CCC(N)=O)C(N)=O)[C@@H](C)CC)[C@@H](C)CC)[C@@H](C)O)[C@@H](C)O)C(C)C)C(C)C [Melittin, reference compound]
% hemolysis at 50 μM peptide [1]: 100%
hemolytic activity (dose response) [1]: the most hemolytic
membrane permeating activity with PC vesicles [2]: highly active
surface partition coefficient reported for melittin [3]: 4.5±0.6×10^4 M^-1

CC[C@H](C)[C@H](NC(=O)[C@H](CCCCN)NC(=O)[C@H]1CCCN1C(=O)[C@@H](NC(=O)[C@H](CC(C)C)NC(=O)[C@H](C)NC(=O)[C@H](Cc1ccccc1)NC(=O)[C@H](Cc1ccccc1)NC(=O)CN)[C@@H](C)CC)C(=O)N[C@H](C(=O)N[C@@H](CO)C(=O)N[C@@H](CO)C(=O)N1CCC[C@H]1C(=O)N[C@@H](CC(C)C)C(=O)N[C@@H](Cc1ccccc1)C(=O)N[C@@H](CCCCN)C(=O)N[C@H](C(=O)N[C@H](CC(C)C)C(=O)N[C@H](CC(C)C)C(=O)N[C@@H](CO)C(=O)N[C@@H](C)C(=O)N[C@H](C(=O)NCC(=O)N[C@@H](CO)C(=O)N[C@@H](C)C(=O)N[C@@H](CC(C)C)C(=O)N[C@@H](CO)C(=O)N[C@@H](CO)C(=O)N[C@@H](CO)C(=O)NCC(=O)NCC(=O)N[C@@H](CCC(N)=O)C(=O)N[C@@H](CCC(=O)NCCN)C(=O)NCCN)C(C)C)[C@@H](C)O)[C@@H](C)CC [Peptide 1]
hemolytic activity (dose response) [1]: practically devoid of hemolytic activity

CC[C@H](C)[C@H](NC(=O)[C@H](CCCCN)NC(=O)[C@@H]1CCCN1C(=O)[C@@H](NC(=O)[C@H](CC(C)C)NC(=O)[C@H](C)NC(=O)[C@H](Cc1ccccc1)NC(=O)[C@H](Cc1ccccc1)NC(=O)CN)[C@@H](C)CC)C(=O)N[C@H](C(=O)N[C@@H](CO)C(=O)N[C@@H](CO)C(=O)N1CCC[C@H]1C(=O)N[C@@H](CC(C)C)C(=O)N[C@@H](Cc1ccccc1)C(=O)N[C@@H](CCCCN)C(=O)N[C@H](C(=O)N[C@@H](CC(C)C)C(=O)N[C@@H](CC(C)C)C(=O)N[C@@H](CO)C(=O)N[C@@H](C)C(=O)N[C@H](C(=O)NCC(=O)N[C@@H](CO)C(=O)N[C@@H](C)C(=O)N[C@@H](CC(C)C)C(=O)N[C@@H](CO)C(=O)N[C@@H](CO)C(=O)N[C@@H](CO)C(=O)NCC(=O)NCC(=O)N[C@@H](CCC(N)=O)C(=O)N[C@@H](CCC(=O)NCCN)C(=O)NCCN)C(C)C)[C@@H](C)O)[C@@H](C)CC [Peptide 8, TApar]
hemolytic activity (dose response) [1]: the most hemolytic

CC[C@@H](C)[C@@H](NC(=O)[C@H](CC(C)C)NC(=O)[C@H](C)NC(=O)[C@@H]1CCCN1C(=O)[C@H](CC(C)C)NC(=O)CNC(=O)[C@@H](NC(=O)[C@@H](NC(=O)[C@H](CC(C)C)NC(=O)[C@H](NC(=O)[C@H](CCCCN)NC(=O)[C@H](CC(C)C)NC(=O)[C@H](NC(=O)[C@H](C)NC(=O)CNC(=O)[C@@H](NC(=O)CN)[C@@H](C)CC)C(C)C)C(C)C)[C@@H](C)O)[C@@H](C)O)C(=O)N[C@@H](CO)C(=O)N[C@@H](Cc1c[nH]c2ccccc12)C(=O)N[C@H](C(=O)N[C@H](CCCCN)C(=O)N[C@@H](CCCNC(=N)N)C(=O)N[C@@H](CCCCN)C(=O)N[C@@H](CCCNC(=N)N)C(=O)N[C@@H](CCC(N)=O)C(=O)N[C@@H](CCC(N)=O)C(=O)O)[C@@H](C)CC [Peptide 19]
hemolytic activity (dose response) [1]: practically devoid of hemolytic activity

CC(C)C[C@H](NC(=O)[C@H](CC(C)C)NC(=O)[C@@H](CC(C)C)NC(=O)[C@@H](CC(C)C)NC(=O)[C@H](CC(C)C)NC(=O)[C@@H](N)CCCCN)C(=O)N[C@@H](CCCCN)C(=O)N[C@H](CC(C)C)C(=O)N[C@@H](CC(C)C)C(=O)N[C@H](CC(C)C)C(=O)N[C@@H](CC(C)C)C(=O)N[C@@H](CCCCN)C(N)=O [Peptide 22]
hemolytic activity (in words) [1]: considerable hemolytic activity

CC(C)C[C@H](NC(=O)[C@H](CCCCN)NC(=O)[C@@H](CC(C)C)NC(=O)[C@@H](CC(C)C)NC(=O)[C@H](CC(C)C)NC(=O)[C@@H](N)CCCCN)C(=O)N[C@@H](CC(C)C)C(=O)N[C@H](CC(C)C)C(=O)N[C@@H](CCCCN)C(=O)N[C@H](CC(C)C)C(=O)N[C@@H](CC(C)C)C(=O)N[C@@H](CCCCN)C(N)=O [Peptide 23]
hemolytic activity (in words) [1]: devoid of hemolytic activity

CC(C)C[C@H](NC(=O)[C@H](CCCCN)NC(=O)[C@@H](CC(C)C)NC(=O)[C@@H](CC(C)C)NC(=O)[C@H](CC(C)C)NC(=O)[C@@H](N)CCCCN)C(=O)N[C@@H](CCCCN)C(=O)N[C@H](CC(C)C)C(=O)N[C@@H](CCCCN)C(=O)N[C@H](CC(C)C)C(=O)N[C@@H](CC(C)C)C(=O)N[C@@H](CCCCN)C(N)=O [Peptide 24]
hemolytic activity (in words) [1]: devoid of hemolytic activity

(Lys-Leu-Leu-Leu-Lys-Leu-Leu-Leu-Lys-Leu-Leu-Lys-Cys-NH2)5 Lys-Leu-Leu-Leu-Lys-Leu-Leu-Leu-Lys-Leu-Leu-Lys-NH2 [Peptide 92]
% hemolysis at 100 μM [1]: 0%
Minimal Inhibitory Concentration B. megaterium (Bm11) (Bacillus megaterium Bm11): 0.05 µM
Minimal Inhibitory Concentration E. coli (D21) (Escherichia coli D21): 0.2 µM

(Lys-Leu-Leu-Leu-Lys-Leu-Lys-Leu-Lys-Leu-Leu-Lys-Cys-NH2)5 Lys-Leu-Leu-Leu-Lys-Leu-Leu-Leu-Lys-Leu-Leu-Lys-NH2 [Peptide 93]
% hemolysis at 100 μM [1]: 0%
Minimal Inhibitory Concentration B. megaterium (Bm11) (Bacillus megaterium Bm11): 0.02 µM
Minimal Inhibitory Concentration E. coli (D21) (Escherichia coli D21): 0.1 µM

Gly-Phe-Phe-Ala-Leu-Ile-Pro-Lys-Ile-Ile-Ser-Ser-Pro-Leu-Phe-Lys-Thr-Leu-Leu-Ser-Ala-Val-(NH--CH2 --CH2 --NH2)2 (GFFALI[dP]KIISSPLFKTLLSAV; not fully specified (C-terminus); printed as Gly-Phe-Phe-Ala-Leu-Ile-Pro-Lys-Ile-Ile-Ser-Ser-Pro-Leu-Phe-Lys-Thr-Leu-Leu-Ser-Ala-Val-(NH—$CH_2$—$CH_2$—$NH_2$)$_2$; also: C-terminus written (NH--CH2--CH2--NH2)2) [Peptide 2]
% hemolysis at 50 μM peptide [1]: 0%
Minimal Inhibitory Concentration B. megaterium (Bm11) (Bacillus megaterium Bm11): 2.5 µM
Minimal Inhibitory Concentration A. calcoaceticus (Ac11) [4]: 12.5 µM
Minimal Inhibitory Concentration E. coli (D21) (Escherichia coli D21): 12.5 µM

KLLLKLLK [Peptide 29]
% hemolysis at 100 μM [1]: 0%
Minimal Inhibitory Concentration B. megaterium (Bm11) (Bacillus megaterium Bm11): 3 µM
Minimal Inhibitory Concentration E. coli (D21) (Escherichia coli D21): 3 µM

KLLLLK [Peptide 28]
% hemolysis at 100 μM [1]: 0%
Minimal Inhibitory Concentration B. megaterium (Bm11) (Bacillus megaterium Bm11): 50 µM
Minimal Inhibitory Concentration E. coli (D21) (Escherichia coli D21): 200 µM

Lys-Gly-Phe-Phe-Ala-Leu-Ile-Pro-Lys-Ile-Ile-Ser-Ser-Pro-Leu-Phe-Lys-Thr-Leu-Leu-Ser-Ala-Val-(NH--CH2 --CH2 --NH2)2 (KGFFALI[dP]KIISSPLFKTLLSAV; not fully specified (C-terminus); printed as Lys-Gly-Phe-Phe-Ala-Leu-Ile-Pro-Lys-Ile-Ile-Ser-Ser-Pro-Leu-Phe-Lys-Thr-Leu-Leu-Ser-Ala-Val-(NH—$CH_2$—$CH_2$—$NH_2$)$_2$; also: D-Pro7 (position 7 is Ile), C-terminus written (NH--CH2--CH2--NH2)2) [Peptide 4]
% hemolysis at 50 μM peptide [1]: 0%
Minimal Inhibitory Concentration B. megaterium (Bm11) (Bacillus megaterium Bm11): 1.5 µM
Minimal Inhibitory Concentration A. calcoaceticus (Ac11) [4]: 7.5 µM
Minimal Inhibitory Concentration E. coli (D21) (Escherichia coli D21): 7.5 µM

Lys-Lys-Gly-Phe-Phe-Ala-Leu-lle-Er-Lys-Ile-Ile-Ser-Ser-Pro-Leu-Phe-Lys-Thr- Leu-Leu-Ser-Ala-Val-(NH--CH2 --CH2 --NH2)2 [Peptide 5]
% hemolysis at 50 μM peptide [1]: 0%
Minimal Inhibitory Concentration B. megaterium (Bm11) (Bacillus megaterium Bm11): 0.75 µM
Minimal Inhibitory Concentration A. calcoaceticus (Ac11) [4]: 3.5 µM
Minimal Inhibitory Concentration E. coli (D21) (Escherichia coli D21): 3.5 µM
